Measurements taken from paper PMC4428629, “The Structure of an NDR/LATS Kinase–Mob Complex Reveals a Novel Kinase–Coactivator System and Substrate Docking Mechanism” (PLoS Biology, 2015).
Residues, ends and D or L forms follow the SMILES beside them.

Legend:
Cbk1–Mob2 = assay: In vitro pulldown of Cbk1–Mob2; format: binding, Saccharomyces cerevisiae
Procedure: Cbk1 substrates containing the docking motifs or substrate sites were bacterially expressed as MBP or GST fusions. For pulldown assays, MBP-fusion lysates were incubated with amylose resin (New England Biolabs) on ice for 15 min, followed by washing with PBS (137 mM NaCl, 2.7 mM KCl, 4.3 mM Na2HPO4, 1.4 mM KH2PO4 [pH 7.3]). GST fusions were purified on glutathione Sepharose beads followed by dialysis into Cbk1 buffer.
MBP fusions were incubated on bead with 1 μM purified Cbk1 on ice for 15 min. Samples were washed 3× with PBS (transferred to fresh tube on last wash), resuspended in SDS-PAGE buffer, and separated by SDS-PAGE. Samples were directly visualized with GelCode Blue (Pierce) or transferred to PVDF membrane for immunoblotting. Cbk1 was detected using His or pS570 primary antibodies. For experiments detected using α-pS570, antibody signal with pure protein was analyzed to control for lot-dependent variations in expression as well as variations between Cbk1 mutants (no variations detected).

Cbk1^251-756-Mob2 = target: T1, Cbk1^251-756-Mob2 (Saccharomyces cerevisiae, UniProt P43563+P53894); assay: FP direct titration, Cbk1^251-756-Mob2 (WT); format: binding; details: CF-labeled peptide 20 nM, Tris pH 8.0, triplicate, read-out: peptide binding affinity (table in Fig 5C)
T1 construct: His6-Cbk1^251–756 was co-expressed with GST-Mob2 (full length or 45–287); His6 (N); made in house
T1 sequence (P53894 251-756): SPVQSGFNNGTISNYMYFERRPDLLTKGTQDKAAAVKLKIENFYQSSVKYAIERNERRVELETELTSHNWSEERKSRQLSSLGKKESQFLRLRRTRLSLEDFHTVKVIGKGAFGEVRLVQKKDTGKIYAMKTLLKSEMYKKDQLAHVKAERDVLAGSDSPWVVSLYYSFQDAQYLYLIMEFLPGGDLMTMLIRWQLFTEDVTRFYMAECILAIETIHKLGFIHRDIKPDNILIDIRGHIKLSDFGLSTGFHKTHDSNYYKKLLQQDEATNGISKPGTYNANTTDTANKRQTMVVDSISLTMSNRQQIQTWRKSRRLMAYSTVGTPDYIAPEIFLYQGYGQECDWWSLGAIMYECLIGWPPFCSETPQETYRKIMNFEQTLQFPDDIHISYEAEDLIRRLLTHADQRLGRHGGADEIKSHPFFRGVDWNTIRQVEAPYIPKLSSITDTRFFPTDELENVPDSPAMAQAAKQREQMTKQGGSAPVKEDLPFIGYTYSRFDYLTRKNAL
T1 sequence (P43563 1-287 partner): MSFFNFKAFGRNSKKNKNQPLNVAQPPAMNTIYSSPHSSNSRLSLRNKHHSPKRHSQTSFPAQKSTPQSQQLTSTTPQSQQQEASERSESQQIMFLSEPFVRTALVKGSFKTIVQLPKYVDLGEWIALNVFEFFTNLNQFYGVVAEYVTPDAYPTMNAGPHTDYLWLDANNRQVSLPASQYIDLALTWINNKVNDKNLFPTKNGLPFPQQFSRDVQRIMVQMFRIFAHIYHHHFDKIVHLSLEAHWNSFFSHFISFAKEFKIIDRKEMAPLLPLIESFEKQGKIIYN
Procedure: His6-Cbk1^251–756 was co-expressed with GST-Mob2 (full length or 45–287). Cbk1 kinase domain alone (352–756 or 352–692) was expressed as GST-Cbk1-His6. All constructs were bacterially expressed and purified on a Ni-NTA resin (Qiagen) followed by glutathione Sepharose beads (GE Biosciences). For crystallization, tags were cleaved with TEV protease followed by cation exchange chromatography on a Resource S column. All Cbk1 preparations were subsequently dialyzed into Cbk1 buffer (20 mM Tris-HCl, 150 mM NaCl, 2 mM DTT [pH 8.0]).
For FP-based binding affinity measurements, different docking peptides (pepAce2: GSGSIIVTTNSANGGYQFP; pepSSD1: TTEQSDFKFP; pepHM: IGYTYSRFDY; pepHM-P: IGYpTYSRFDY) were N-terminally (pepAce2 and pepSSD1) or C-terminally (pepHM and pepHM-P) labeled with carboxyfluorescein (CF) fluorescent dyes.
Change in the FP signal in direct binding affinity measurements was monitored as a function of increasing concentration of protein with a Synergy H4 (BioTek Instruments) plate reader in 384-well plates. The labeled peptides were at 20 nM in 20 mM Tris (pH 8.0), 100 mM NaCl, 0.05% Brij35P, 2 mM DTT. The resulting binding isotherms were fit to a quadratic binding equation. The affinity of the unlabeled peptides was measured in steady-state competition experiments: 20 nM labeled reporter was mixed with protein samples in a concentration to achieve ~60%–80% complex formation. Subsequently, increasing amounts of unlabeled peptide were added, and the FP signal was measured as described earlier for direct titration experiments. The Kd for each unlabeled peptide interaction was determined by fitting the data to a competition binding equation. Titration experiments were carried out in triplicate, and the average FP signal was used for fitting the data with OriginPro 7.

| Kd (Cbk1^251-756-Mob2) | Compound | Cbk1 pulldown (Cbk1–Mob2; Cbk1 F699A mutant (Fig 5B)) | Cbk1 pulldown (Cbk1–Mob2; Cbk1 Y687A mutant (Fig 5B)) |
| --- | --- | --- | --- |
| – | Ssd1^208–214: Ssd1 docking fragment used for Cbk1 pulldown (QSDFKFP; UniProt P24276 208-214, looked up, fragment) | not nearby F699A abrogate Cbk1 pulldown | abrogate Cbk1 pulldown |
| 6 µM | C[C@@H](O)[C@H](N)C(=O)N[C@H](C(=O)N[C@@H](CCC(=O)O)C(=O)N[C@@H](CCC(N)=O)C(=O)N[C@@H](CO)C(=O)N[C@@H](CC(=O)O)C(=O)N[C@@H](Cc1ccccc1)C(=O)N[C@@H](CCCCN)C(=O)N[C@@H](Cc1ccccc1)C(=O)N1CCC[C@H]1C(=O)O)[C@@H](C)O [pepSSD1] (H-TTEQSDFKFP-OH) | – | – |
